The series concerns CCRIS mutagenicity, Ames/micronucleus/aberration tests. The experiment in a line: CCRIS mutagenicity studies.
Where [1] appears, read: Test System: AMES SALMONELLA TYPHIMURIUM, Strain/Indicator: TA98, Metabolic Activation: NONE, Method: STANDARD PLATE.
The mark [2] stands for this setting: Test System: AMES SALMONELLA TYPHIMURIUM, Strain/Indicator: TA98, Metabolic Activation: S-9, Method: STANDARD PLATE.
[3] abbreviates: Test System: AMES SALMONELLA TYPHIMURIUM, Strain/Indicator: TA100, Metabolic Activation: NONE, Method: PREINCUBATION
[4] abbreviates: Test System: AMES SALMONELLA TYPHIMURIUM, Strain/Indicator: TA100, Metabolic Activation: S-9, Method: STANDARD PLATE.
[5] abbreviates: Test System: AMES SALMONELLA TYPHIMURIUM, Strain/Indicator: TA1535, Metabolic Activation: NONE, Method: STANDARD PLATE.
Where [6] appears, read: Test System: AMES SALMONELLA TYPHIMURIUM, Strain/Indicator: TA100, Metabolic Activation: NONE, Method: STANDARD PLATE.
Where [7] appears, read: Test System: AMES SALMONELLA TYPHIMURIUM, Strain/Indicator: TA98, Metabolic Activation: RAT, LIVER, S-9, AROCLOR 1254, Method: STANDARD PLATE.
Setting [8] is: Test System: AMES SALMONELLA TYPHIMURIUM, Strain/Indicator: TA100, Metabolic Activation: RAT, LIVER, S-9, AROCLOR 1254, Method: STANDARD PLATE.

Results on ten compounds are retold here after PubChem BioAssay AID1259407 (Chemical Carcinogenesis Research Information System (CCRIS), 2018).

Activity calls are given as the source filed them. The rule behind the calls is not given here.

As for `CCN(CC)C(=O)/C(Cl)=C(\C)OP(=O)(OC)OC`, the mutagenic call was “active; positive (structural changes)” (End Point: IN VITRO CHROMOSOMAL ABERRATIONS, Test System: HUMAN PERIPHERAL BLOOD LYMPHOCYTES, Metabolic Activation: NONE); “active; positive” (Test System: AMES SALMONELLA TYPHIMURIUM, Strain/Indicator: G46, Metabolic Activation: HOST-MEDIATED, Method: STANDARD PLATE); “inactive; negative” (Test System: AMES SALMONELLA TYPHIMURIUM, Strain/Indicator: TA97A, Metabolic Activation: NONE, Method: STANDARD PLATE); “inactive; negative” (Test System: AMES SALMONELLA TYPHIMURIUM, Strain/Indicator: TA97A, Metabolic Activation: PLANT, HOMOGENATE, S-14, Method: STANDARD PLATE); “inactive; negative” (Test System: AMES SALMONELLA TYPHIMURIUM, Strain/Indicator: TA97A, Metabolic Activation: S-9, Method: STANDARD PLATE); “inactive; negative” under setting [1]. The mutagenic call by setting is: (Test System: AMES SALMONELLA TYPHIMURIUM, Strain/Indicator: TA98, Metabolic Activation: PLANT, HOMOGENATE, S-14, Method: STANDARD PLATE) “inactive; negative”; under setting [2], “inactive; negative”; under setting [3], “active; positive”; (Test System: AMES SALMONELLA TYPHIMURIUM, Strain/Indicator: TA100, Metabolic Activation: PLANT, HOMOGENATE, S-14, Method: STANDARD PLATE) “inactive; negative”; under setting [4], “inactive; negative”; (Test System: AMES SALMONELLA TYPHIMURIUM, Strain/Indicator: TA102, Metabolic Activation: NONE, Method: STANDARD PLATE) “inactive; negative”. Further, the mutagenic call by setting is: (Test System: AMES SALMONELLA TYPHIMURIUM, Strain/Indicator: TA104, Metabolic Activation: NONE, Method: STANDARD PLATE) “inactive; negative”; under setting [5], “inactive; negative”; (Test System: AMES SALMONELLA TYPHIMURIUM, Strain/Indicator: TA1535, Metabolic Activation: PLANT, HOMOGENATE, S-14, Method: STANDARD PLATE) “inactive; negative”; (Test System: AMES SALMONELLA TYPHIMURIUM, Strain/Indicator: TA1535, Metabolic Activation: S-9, Method: STANDARD PLATE) “inactive; negative”.
As for `O=S(=O)(C(Cl)(Cl)Cl)C(Cl)(Cl)Cl`, the mutagenic call is “inactive; negative. reevaluation of results: positive” (Test System: MOUSE LYMPHOMA, Strain/Indicator: L5178Y (TK+/TK-), Metabolic Activation: NONE, Method: SUSPENSION/PLATE) and “inactive; negative. reevaluation of results: negative” (Test System: MOUSE LYMPHOMA, Strain/Indicator: L5178Y (TK+/TK-), Metabolic Activation: RAT, LIVER, S-9, AROCLOR 1254, Method: SUSPENSION/PLATE).
For the compound `CCC(C)OS(C)(=O)=O` (stereo not drawn), the mutagenic call (End Point: IN VITRO MICRONUCLEUS, Test System: MOUSE LYMPHOMA L5178Y CELLS, Metabolic Activation: NONE) was “active; positive”; the mutagenic call (End Point: IN VITRO MICRONUCLEUS, Test System: MOUSE LYMPHOMA L5178Y CELLS, Metabolic Activation: RAT, LIVER, S-9) is “active; positive”; the mutagenic call under setting [1] was “active; positive”; the mutagenic call (Test System: AMES SALMONELLA TYPHIMURIUM, Strain/Indicator: TA98, Metabolic Activation: RAT, LIVER, S-9, Method: STANDARD PLATE) is “active; positive”; the mutagenic call under setting [6] is “active; positive”; the mutagenic call (Test System: AMES SALMONELLA TYPHIMURIUM, Strain/Indicator: TA100, Metabolic Activation: RAT, LIVER, S-9, Method: STANDARD PLATE) is “active; positive”. Further, the mutagenic call under setting [5] was “active; positive” and the mutagenic call (Test System: CHINESE HAMSTER V-79, Strain/Indicator: V-79/6-THIOGUANINE, Metabolic Activation: NONE) is “active; positive”.
On to `O[C@H]1[C@@H]2O[C@@H]2c2c(ccc3cc4ccc5ccccc5c4nc23)[C@@H]1O`, for which the mutagenic call runs as follows: (Test System: AMES SALMONELLA TYPHIMURIUM, Strain/Indicator: TA98, Metabolic Activation: NONE, Method: PREINCUBATION) “active; positive”; under setting [3], “active; positive”; (Test System: CHINESE HAMSTER V-79, Strain/Indicator: V-79/8-AZAGUANINE, Metabolic Activation: NONE, Method: STANDARD PLATE) “active; positive”.
As for `C=C(C=O)CC`, the mutagenic call by setting is: under setting [3], “active; positive”; (Test System: AMES SALMONELLA TYPHIMURIUM, Strain/Indicator: TA100, Metabolic Activation: RAT LIVER S-9, AROCLOR 1254, Method: PREINCUBATION) “active; positive”; (Test System: AMES SALMONELLA TYPHIMURIUM, Strain/Indicator: TA100, Metabolic Activation: RAT, LIVER, S-9, AROCLOR 1254, Method: PREINCUBATION) “active; positive”.
Take `Nc1ccc(/C=C/c2cccc(N)c2)cc1`: the mutagenic call (Test System: AMES SALMONELLA TYPHIMURIUM, Strain/Indicator: TA98(1,8-DNP6), Metabolic Activation: NONE, Method: STANDARD PLATE) was “inactive; negative”; the mutagenic call (Test System: AMES SALMONELLA TYPHIMURIUM, Strain/Indicator: TA98(1,8-DNP6), Metabolic Activation: S-9, Method: STANDARD PLATE) is “active; positive”; the mutagenic call under setting [1] was “active; positive”; the mutagenic call under setting [2] is “active; positive”; the mutagenic call under setting [6] was “inactive; negative”; the mutagenic call under setting [4] was “active; positive”.
As to `N#Cc1ccc(/C=C/c2ccc([N+](=O)[O-])cc2)cc1`, the mutagenic call runs as follows: (Test System: AMES SALMONELLA TYPHIMURIUM, Strain/Indicator: TA98 (NR), Metabolic Activation: NONE, Method: STANDARD PLATE) “active; positive”; (Test System: AMES SALMONELLA TYPHIMURIUM, Strain/Indicator: TA98 (NR), Metabolic Activation: S-9, Method: STANDARD PLATE) “active; positive”; (Test System: AMES SALMONELLA TYPHIMURIUM, Strain/Indicator: TA98, Metabolic Activation: RAT, LIVER, S-9, AROCLOR, Method: STANDARD PLATE) “active; positive”; under setting [2], “active; positive”; (Test System: AMES SALMONELLA TYPHIMURIUM, Strain/Indicator: TA100 (NR), Metabolic Activation: NONE, Method: STANDARD PLATE) “inactive; negative”; (Test System: AMES SALMONELLA TYPHIMURIUM, Strain/Indicator: TA100(NR), Metabolic Activation: S-9, Method: STANDARD PLATE) “inactive; negative”. Also, the mutagenic call runs as follows: (Test System: AMES SALMONELLA TYPHIMURIUM, Strain/Indicator: TA100, Metabolic Activation: RAT, LIVER, S-9, AROCLOR, Method: STANDARD PLATE) “active; positive”; under setting [4], “active; positive”.
In the case of `O=C(CCNNC(=O)c1ccncc1)NCc1ccccc1`, the mutagenic call under setting [1] was “inactive; negative”; the mutagenic call under setting [7] was “inactive; negative”; the mutagenic call under setting [6] was “active; positive”; the mutagenic call under setting [8] was “active; positive”; the mutagenic call under setting [5] was “active; positive”; the mutagenic call (Test System: AMES SALMONELLA TYPHIMURIUM, Strain/Indicator: TA1535, Metabolic Activation: RAT, LIVER, S-9, AROCLOR 1254, Method: STANDARD PLATE) is “active; positive”. Also, the mutagenic call by setting is: (Test System: AMES SALMONELLA TYPHIMURIUM, Strain/Indicator: TA1537, Metabolic Activation: NONE, Method: STANDARD PLATE) “inactive; negative”; (Test System: AMES SALMONELLA TYPHIMURIUM, Strain/Indicator: TA1537, Metabolic Activation: RAT, LIVER, S-9, AROCLOR 1254, Method: STANDARD PLATE) “inactive; negative”.
In the case of `O=Nc1ccc2ccccc2c1`, the mutagenic call runs as follows: under setting [1], “active; positive”; under setting [2], “active; positive”; under setting [6], “active; positive”; under setting [4], “active; positive”; (Test System: AMES SALMONELLA TYPHIMURIUM, Strain/Indicator: TA1538, Metabolic Activation: NONE, Method: STANDARD PLATE) “active; positive”.
`Nc1ccc(-c2ccc(Cl)cc2)cc1`: the mutagenic call was “inactive; negative” under setting [1], “active; positive” under setting [7], “inactive; negative” under setting [6] and “active; positive” under setting [8].
